From PMC5698418 (Nature Communications, 2017)

Tests used:
primary cortical neurons = conditions: screen at 16.7 µM, excluded from data analysis
Method: All 319 compounds were initially tested at a final concentration of 16.7 µM with three biological replicates.
(§1) Screening of compounds in the chemogenomic library was carried out using DIV13 primary forebrain cortical neurons cultured on poly-L-lysine/laminin-coated 96-well plates (Ibidi USA, Madison, WI). Cells were seeded at a density of 30,000 cells per well and treated with the compound library and BDNF according to the experimental design presented in Fig. 3a. After experimental treatment, cells were processed for Arc and acetyl-H3K9 immunocytochemistry according to the protocol described above. Both antigens (Arc and acetyl-H3K9) were imaged using an IN Cell Analyzer 6000 imaging system and a ×40 objective. […] High-throughput quantification of nuclear Arc immunofluorescence signal was performed in a similar fashion than the low-throughput procedure described above but with the exception that acetyl-H3K9 was used as a nuclear mask to guide the automated quantification of nuclear Arc immunofluorescence signal.

acetyl-H3K9 = experiment: Acetyl-H3K9 immunofluorescence in neuronal nuclei (multiplexed in screen); type: cell-based, mouse; conditions: for impact on acetyl-H3K9 immunofluorescence (Z-score): screen, 16.7 µM
Method: To increase the throughput of our pharmacological screening for modulators of Arc, the above mentioned assay was adapted to cultures of mouse primary cortical neurons in 96-well plates.
as §1

[1] = test system: BDNF-induced nuclear Arc expression in primary cortical neurons; experiment: Chemogenomic screen: high-content image-based assay of BDNF-induced nuclear Arc expression (96-well); type: cell-based, mouse; conditions: for occurrence of neuronal nuclei with above threshold nuclear Arc immunofluorescence signal, factor in relation to control (DMSO plus BDNF): 16.7 µM
In short: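 DIV13 mouse primary cortical neurons (30,000 cells/well) are treated with compound at 16.7 µM and BDNF, in three biological replicates. Arc and acetyl-H3K9 are immunostained and imaged at ×40, and nuclear Arc signal is quantified automatically using acetyl-H3K9 as the nuclear mask.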

Arc mRNA = Arc mRNA by real-time RT-PCR in primary cortical neurons; type: cell-based, mouse; conditions: 6 h BDNF plus U0126 10 µM or NSC23766 200 µM
Method: After experimental treatment, total RNA was isolated from primary cortical neuron cultures using the TRIzol method (Invitrogen). The concentration of total RNA was measured using a NanoDrop 1000 spectrophotometer (Thermo Fisher Scientific, Rockford, IL) and first-strand complementary DNA (cDNA) was synthesized using the iScript cDNA Synthesis Kit (Bio-Rad, Hercules, CA). Real-time PCRs were performed using gene-specific primers and monitored by quantification of SYBR Green I fluorescence using a Bio-Rad CFX96 Real-Time Detection System. Expression was normalized against Gapdh expression. The relative quantification from at least three biological replicates was performed using the comparative cycle threshold (∆∆CT) method.
Primers for real-time reverse transcription PCR experiments were: Arc, 5′-[…]-3′ (forward) and 5′-[…]-3′ (reverse); Map2, 5′-[…]-3′ (forward) and 5′-[…]-3′ (reverse); GluA1, 5′-[…]-3′ (forward) and 5′-[…]-3′ (reverse); GluA2, 5′-[…]-3′ (forward) and 5′-[…]-3′ (reverse); Gapdh, 5′-[…]-3′ (forward) and 5′-[…]-3′ (reverse).

[2] = test system: nuclear Arc in primary cortical neurons; experiment: Low-throughput nuclear Arc immunofluorescence assay (coverslips, Map2-positive cells); type: cell-based, mouse
Text: Next, using fluorescent immunocytochemistry we assessed to what extent the observed induction of total Arc protein expression measured by western blotting corresponded to an accumulation of Arc in the nucleus of our cultured neurons. We chose to focus on nuclear Arc at this point based on the assumption that it would provide a robust and easily tractable phenotype for testing a large set of compounds with the help of a quantitative, single-cell level, high-content, image-based screen. […] On the other hand, many but not all of the neurons in cultures that were treated with BDNF for 6 h had high levels of Arc in their nuclei (Fig. 2b). […] Finally, to further evaluate the sensitivity of our method to quantify nuclear Arc expression, we tested four pharmacological inhibitors predicted to prevent BDNF-induced Arc expression. […] These experimental results with known mechanism of action compounds critically guided the design and interpretation of the chemogenomic screen performed next.
(§2) Indirect immunofluorescence detection of antigens was carried out using cortical neurons cultured on poly-L-lysine/laminin-coated coverslips in 24-well plates at a density of 0.1 × 10^7 per well. After experimental treatment, cells were washed twice with PBS and fixed for 30 min at room temperature with 4% paraformaldehyde in PBS. After fixation, cells were washed twice with PBS, permeabilized with PBST (PBS + 0.25% Triton X-100) for 20 min, blocked in blocking solution (PBS + 5% normal goat serum) for another 30 min, and finally incubated overnight at 4 °C with the first primary antibody in blocking solution. The next day, coverslips were extensively washed with PBS and incubated for 2 h at room temperature in the appropriate fluorophore-conjugated secondary antibody solution (Alexa 488- or Alexa 594-conjugated secondary antibody (Molecular Probes, Invitrogen) in blocking solution). After washing with PBS, the coverslips were incubated again overnight in primary antibody solution for the second antigen, and the procedure for conjugation of the fluorophore-conjugated secondary antibody was repeated as above. Finally, cell nuclei were counterstained with 4′,6-diamidino-2-phenylindole (DAPI), and coverslips were mounted on glass slides with ProLong Antifade reagent (Invitrogen).
Cells cultured on coverslips from three independent biological replicates were imaged with an IN Cell Analyzer 6000 high-performance laser-based confocal imaging system and a ×40 objective (GE Healthcare Life Sciences, Marlborough, MA). Image preparation, assembly, and analysis were performed with ImageJ (NIH) and Photoshop CS. Change in contrast and evenness of the illumination was applied equally to all images presented in the study. The following procedure was used for low-throughput measurements. First, original raw tiff files were opened in ImageJ, the nucleus of all neurons in the image was located based on Map2 immunostaining, then average pixel intensity corresponding to Arc immunofluorescence was measured for a 30-pixel spot positioned at the center of the nuclear compartment. Second, for each measure of Arc nuclear immunofluorescence pixel intensity, a measure of background pixel intensity from the same image channel was acquired and subsequently subtracted from the Arc nuclear immunofluorescence pixel intensity value. Finally, Arc immunofluorescence signal from untreated samples was used to establish an objective threshold (two standard deviations above the nuclear Arc immunofluorescence signal averaged from a representative population of untreated neurons) and allow comparison of nuclear Arc expression between different experimental conditions.

HDAC1 = biological target: T1, HDAC1 (Homo sapiens, UniProt Q13547); experiment: Biochemical HDAC assay (BPS Bioscience), HDAC1; conditions: 25 µM
T1 construct: purchased BPS Bioscience (San Diego, CA), contract assay service

surface GluA1 = experiment: Surface AMPAR (GluA1) imaging along dendrites; type: cell-based, mouse; conditions: 16.7 µM, 6 h with BDNF, vs untreated and BDNF alone; for BDNF: BDNF alone vs baseline
Method: Our procedure to label surface AMPARs containing the GluA1 subunit was adapted from two reports[14],[61]. Precisely, DIV14 primary cortical neurons cultured on coverslips were rinsed once with room temperature PBS^MC (PBS containing 0.5 mM CaCl2, 1 mM MgCl2, and 4% sucrose). Live cells were then incubated for 30 min at room temperature with GluA1 primary antibody solution (PBS^MC with antibody against the extracellular N-terminus of GluA1 (EMD Millipore Corp, clone RH95, 5.0 µg ml^−1)). Next, cells were rinsed twice with ice-cold PBS^MC followed by fixation with 4% paraformaldehyde + 4% sucrose solution for 15 min at room temperature. After fixation, neurons were washed with regular PBS and then incubated overnight with Map2 primary antibody solution (PBS with 0.125% Triton X-100, 5% normal goat serum, and anti-Map2 antibody) to label dendrites. Next day, coverslips were washed with PBS, incubated with appropriate secondary antibodies for 1 h at room temperature, and finally mounted on glass slides with ProLong Antifade reagent (Invitrogen).
(§3) Quantification of surface GluA1 puncta was performed according to the following strategy. First, overlapping digital images of GluA1 and Map2 immunostainings were collected using a Zeiss AxioObserver Z1 inverted microscope and ×63 oil immersion objective. Second, thresholding and segmentation based on the Map2 images was used to remove GluA1 signals outside of dendritic processes. Importantly, the same background/foreground cutoff threshold was used for images of all experimental conditions. Third, the length of dendrites for each image set was measured and recorded. Finally, distinct GluA1 foreground objects along dendrites >5 pixels were counted using the particle analysis tool in ImageJ and presented as the average number of GluA1 puncta per µm of dendrite length for each experimental condition.

HDAC2 = biological target: T2, HDAC2 (Homo sapiens, UniProt Q92769); experiment: Biochemical HDAC assay (BPS Bioscience), HDAC2; conditions: 25 µM
T2 construct: purchased BPS Bioscience (San Diego, CA), contract assay service

HDAC3 = biological target: T3, HDAC3 (Homo sapiens, UniProt O15379); experiment: Biochemical HDAC assay (BPS Bioscience), HDAC3; conditions: 25 µM
T3 construct: purchased BPS Bioscience (San Diego, CA), contract assay service

[3] = test system: Arc puncta in dendrites of primary cortical neurons; experiment: Arc puncta along Map2-labeled dendrites (immunocytochemistry); type: cell-based, mouse; conditions: 16.7 µM with BDNF, vs untreated and BDNF alone; for BDNF: BDNF alone vs untreated
Text: Chemical structure of each compound is presented on top. b Graphs show mean (n = 5) Arc/β-actin ratio (±SEM) for cells treated as in a. […] Tukey’s HSD post hoc test, *p < 0.05; **p < 0.01, ***p < 0.005; ****p < 0.0001. […] Representative captures of DIV14 mouse primary cortical neurons from each experimental condition co-immunostained for Arc (red fluorophore) and Map2 (green fluorophore). White arrowheads show examples of discrete Arc puncta. […] Tukey’s HSD post hoc test, *p < 0.05; ***p < 0.005; ****p < 0.0001
as §2, §3

Arc protein = experiment: Western blot of total Arc protein in primary cortical neurons; type: cell-based, mouse; conditions: 6 h; BDNF 100 ng ml−1 or 4AP 40 µM + Bic 50 µM
Method: Forebrains of E16.5 C57BL/6 mouse embryos were dissected and then dissociated in trypsin solution for 15 min followed by three washes with phosphate-buffered saline (PBS). Single-cell suspension was achieved by gentle pipet trituration. Neurons were seeded in poly-L-lysine/laminin-coated six-well plates at a density of 2 × 10^6 per well and maintained in neurobasal medium containing B27 supplement (2%, Invitrogen, Grand Island, NY), penicillin (50 units ml^−1, Invitrogen), streptomycin (50 µg ml^−1, Invitrogen), and glutamine (1 mM, Sigma). For experiments involving BDNF (EMD Millipore Corps, Billerica, MA), the stock solution (2 ng µl^−1 in water) was added directly to the culture medium at a final concentration of 100 ng ml^−1 for the indicated period of time.
For western blot analyses, cells were collected by scraping in ice-cold radioimmunoprecipitation assay (RIPA) buffer (50 mM Tris-HCl (pH 8.0), 300 mM NaCl, 0.5% Igepal-630, 0.5% deoxycholic acid, 0.1% SDS, 1 mM EDTA) supplemented with a cocktail of protease inhibitors (Complete Protease Inhibitor without EDTA, Roche Applied Science, Indianapolis, IN) and phosphatase inhibitors (phosphatase inhibitor cocktail A, Santa Cruz Biotechnology). One volume of 2× Laemmli buffer (100 mM Tris-HCl (pH 6.8), 4% SDS, 0.15% bromophenol blue, 20% glycerol, 200 mM β-mercaptoethanol) was added and the extracts were boiled for 5 min. Samples were adjusted to an equal concentration after protein concentrations were determined using the BCA assay (Pierce, Thermo Fisher Scientific). Lysates were separated using SDS–PAGE and transferred to a nitrocellulose membrane. After transfer, the membrane was blocked in TBST (Tris-buffered saline + 0.1% Tween 20) supplemented with 5% nonfat powdered milk and probed with the indicated primary antibody at 4 °C overnight. After washing with TBST, the membrane was incubated with the appropriate secondary antibody and visualized using enhanced chemiluminescence (ECL) reagents according to the manufacturer’s guidelines (Pierce, Thermo Fisher Scientific).
The following procedure was used to quantify western blots. First, equal quantity of protein lysate was analyzed by SDS–PAGE for each biological replicate. Second, the exposure time of the film to the ECL chemiluminescence was the same for each biological replicate. Third, all the exposed films were scanned on a Brother MFC-J485DW scanner in grayscale at a resolution of 300 dpi. Fourth, the look-up table (LUT) of the scanned tiff images was inverted and the intensity of each band was individually measured using the selection tool and the histogram function in Adobe Photoshop CC 2015 software. […]

T3 sequence (O15379 whole entry): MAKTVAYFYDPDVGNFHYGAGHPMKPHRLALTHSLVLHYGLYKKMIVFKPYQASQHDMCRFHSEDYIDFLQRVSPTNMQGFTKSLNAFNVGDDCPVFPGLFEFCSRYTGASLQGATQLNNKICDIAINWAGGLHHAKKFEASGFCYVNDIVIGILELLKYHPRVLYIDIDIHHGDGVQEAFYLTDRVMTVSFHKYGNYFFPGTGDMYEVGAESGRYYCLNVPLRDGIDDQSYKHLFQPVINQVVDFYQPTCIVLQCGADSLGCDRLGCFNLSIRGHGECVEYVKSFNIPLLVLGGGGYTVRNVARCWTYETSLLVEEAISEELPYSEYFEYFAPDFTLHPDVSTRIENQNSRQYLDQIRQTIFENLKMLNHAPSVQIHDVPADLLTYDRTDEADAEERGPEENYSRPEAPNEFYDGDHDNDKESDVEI
T3 sequence (Q9Y618 395-489 partner limits assumed): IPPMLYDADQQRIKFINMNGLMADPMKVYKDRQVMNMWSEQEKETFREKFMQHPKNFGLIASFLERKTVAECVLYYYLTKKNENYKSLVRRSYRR
T1 sequence (Q13547 whole entry): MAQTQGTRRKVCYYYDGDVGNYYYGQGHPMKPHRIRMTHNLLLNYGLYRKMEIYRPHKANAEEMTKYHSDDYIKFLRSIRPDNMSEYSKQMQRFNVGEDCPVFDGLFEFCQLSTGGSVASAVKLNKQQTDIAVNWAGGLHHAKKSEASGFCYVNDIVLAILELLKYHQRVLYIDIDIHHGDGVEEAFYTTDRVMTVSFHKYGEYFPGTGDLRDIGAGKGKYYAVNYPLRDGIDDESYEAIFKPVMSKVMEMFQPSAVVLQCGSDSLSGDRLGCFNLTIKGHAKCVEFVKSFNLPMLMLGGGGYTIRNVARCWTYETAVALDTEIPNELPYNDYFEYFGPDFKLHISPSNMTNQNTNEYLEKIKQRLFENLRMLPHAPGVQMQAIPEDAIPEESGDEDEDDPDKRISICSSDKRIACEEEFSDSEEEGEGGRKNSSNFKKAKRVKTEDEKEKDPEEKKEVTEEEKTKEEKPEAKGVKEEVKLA
T2 sequence (Q92769 whole entry): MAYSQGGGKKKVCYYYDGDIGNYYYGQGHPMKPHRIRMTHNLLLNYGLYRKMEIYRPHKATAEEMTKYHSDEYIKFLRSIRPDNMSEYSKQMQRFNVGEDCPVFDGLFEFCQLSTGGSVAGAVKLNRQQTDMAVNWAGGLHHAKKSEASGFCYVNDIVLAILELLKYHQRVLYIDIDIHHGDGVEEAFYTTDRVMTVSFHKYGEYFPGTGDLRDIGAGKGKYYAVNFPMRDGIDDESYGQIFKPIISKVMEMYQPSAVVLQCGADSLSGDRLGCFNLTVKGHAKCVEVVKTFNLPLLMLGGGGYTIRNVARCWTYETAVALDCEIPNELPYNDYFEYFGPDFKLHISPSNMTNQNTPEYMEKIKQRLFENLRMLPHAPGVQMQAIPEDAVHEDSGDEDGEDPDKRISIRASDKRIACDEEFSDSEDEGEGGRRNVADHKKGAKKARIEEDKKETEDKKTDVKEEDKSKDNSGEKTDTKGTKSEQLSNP

## CC(C)COc1ccc(CNC(=O)N(Cc2ccc(F)cc2)C2CCN(C)CC2)cc1 [Pimavanserin (ACP-103), Pimavanserin]
Primary cortical neurons
  Reason for exclusion: Cell death - toxicity

## C[C@@H](NC(=O)C(=O)c1c[nH]c2ccc([N+](=O)[O-])cc12)c1ccccc1 [TCS 1205]
Primary cortical neurons
  Reason for exclusion: Cell death - toxicity

## Oc1cc(O)c2c(c1)O[C@H](c1cc(O)c(O)c(O)c1)[C@H](O)C2 [Epigallocatechin, Epigallocatechol, Epigallocatechin]
Primary cortical neurons
  Reason for exclusion: Cell death - toxicity

## CNCC[C@H](Oc1cccc2ccccc12)c1cccs1 [Duloxetine]
Primary cortical neurons
  Reason for exclusion: Cell death - toxicity

## CCCCN(CC)c1nc(C)nc2c1c(C)c(C)n2-c1c(C)cc(C)cc1C.Cl [Antalarmin hydrochloride]
Primary cortical neurons
  Reason for exclusion: Cell death - toxicity

## Nc1ccccc1NC(=O)c1ccc(CNC(=O)OCc2cccnc2)cc1 [entinostat, reference compound]
acetyl-H3K9
  impact on acetyl-H3K9 immunofluorescence (Z-score): strong impact
[1]
  occurrence of neuronal nuclei with above threshold nuclear Arc immunofluorescence signal, factor in relation to control (DMSO plus BDNF): ≥ 1.5

## N#CC(=C(/N)Sc1ccccc1N)/C(C#N)=C(/N)Sc1ccccc1N [U0126]
Arc mRNA
  effect on BDNF-induced Arc mRNA expression (RT-qPCR): prevented BDNF-induced Arc expression
[2]; co-treated with BDNF 6 h, k252a 100 nM, ActD 2 ng ml−1, CHX 50 µg ml−1, U0126 10 µM
  effect on BDNF-induced increase of nuclear Arc: effectively prevented the increase of nuclear Arc

## COc1cc2c(NC3CCN(C(C)C)CC3)nc(C3CCCCC3)nc2cc1OCCCN1CCCC1 [UNC 0638]
Primary cortical neurons
  Reason for exclusion: Cell death - toxicity

## CCN(CC)CCCC(C)Nc1nc(C)cc(Nc2ccc3nc(C)cc(N)c3c2)n1 (stereo not shown) [NSC23766]
Arc mRNA
  effect on BDNF-induced Arc mRNA expression (RT-qPCR): prevented BDNF-induced Arc expression but not Rac1 inhibition by NSC23766

## CC(=O)Nc1ccc(C(=O)Nc2ccccc2N)cc1 [CI-994]
HDAC1
  inhibitory activity toward HDAC1: potent inhibition
Surface GluA1
  surface GluA1 puncta per dendrite µm: significant decrease in surface GluA1 levels
HDAC2
  inhibitory activity toward HDAC2: potent inhibition
acetyl-H3K9
  impact on acetyl-H3K9 immunofluorescence (Z-score): strong impact
[1]
  occurrence of neuronal nuclei with above threshold nuclear Arc immunofluorescence signal, factor in relation to control (DMSO plus BDNF): ≥ 1.5
[1]; chemogenomic (SMART) screen, BDNF-induced nuclear Arc expression, primary cortical neurons, BDNF control 19.5
  Percentage of cell with nuclear Arc immunostaining above 2σ threshold: 29.1%
HDAC3
  inhibitory activity toward HDAC3: potent inhibition
[3]
  number of Arc puncta in dendritic projections: significantly greater number of Arc puncta

B1: BDNF: recombinant brain-derived neurotrophic factor, 100 ng ml−1 (protein, UniProt P23560 19-247, looked up)
Neurotrophic factor BDNF …: APMKEANIRGQGGLAYPGVRTHGTLESVNGPKAGSRGLTSLADTFEHVIEELLDEDQKVRPNEENNKDADLYTSRVMLSSQVPLEPPLLFLLEEYKNYLDAANMSMRVRRHSDPARRGELSVCDSISEWVTAADKKTAVDMSGGTVTVLEKVPVSKGQLKQYFYETKCNPMGYTKEGCRGIDKRHWNSQCRTTQSYVRALTMDSKKRIGWRFIRIDTSCVCTLTIKRGR
Arc protein
  Arc protein abundance vs untreated control (western blot): significantly more Arc protein
Surface GluA1
  surface GluA1 puncta per dendrite µm: did not influence, in one way or the other, the number of GluA1 puncta
acetyl-H3K9; BDNF 6 h
  acetyl-H3K9 immunofluorescence intensity levels in primary cortical neurons: unaffected
[2]; BDNF 100 ng ml−1, 6 h, n = 331 neurons
  neurons with Arc-specific nuclear average pixel intensity above threshold (> 2σ of untreated): 17.5%
[2]; BDNF 24 h, n = 334
  neuronal nuclei with above threshold average nuclear Arc signal (> 2σ): 4.2%
[3]
  number of Arc puncta in dendritic projections: did not observe a significant difference
